Results published in paper PMC4619705 (PLoS ONE, 2015).
“Also recorded” adds a separate entry of the source.

Key:
α2β3γ2L GABAARs [1] = target: T1, α2β3γ2L GABAARs (Homo sapiens, UniProt P18507+P28472+P47869); assay: Two-electrode voltage clamp of recombinant α2β3γ2L GABAARs expressed in Xenopus oocytes; assay type: cell-based
T1 construct: expressed in transfected cells; host or cells: Xenopus laevis oocytes injected with capped mRNA, α2:β3:γ2L 3:1:3
From the text: (§1) Human complementary DNA (cDNA) of GABAAR α2 subunit (vector: pCMV6-XL5) was purchased from OriGene Technologies (Rockville, MD, USA), and the human β3 (vector: pGEMHE) and γ2L (vector: pCDM8) subunits were generous gifts from Dr. Bjarke Ebert (H. Lundbeck A/S, Valby, Denmark) and Dr. Paul Whiting (Merck, Sharp and Dohme Research Laboratories, Harlow, Essex, UK) respectively. […] Plasmid vectors with the cDNA incorporated were linearised using appropriate restriction endonucleases (α2: SmaI; β3: NheI; γ2L: NotI). Capped RNA transcripts were synthesised from linearised plasmids using the mMessage mMachine T7 transcript kit from Ambion (Austin, TX, USA). Purified messenger RNA (mRNA) was dissolved in nuclease-free water (Ambion, Austin, TX, USA), and its quality was assessed using 1% agarose gel electrophoresis. The concentration of each subunit mRNA was measured using Nanodrop ND-100 UV-Vis spectrophotometer (Thermo Fisher Scientific, North Ryde, NSW, Australia).
(§2) Various combinations of α2, β3 and γ2L subunit mRNAs were mixed to different ratios as stated in the text, and diluted accordingly to a concentration of 5 ng/μL (unless otherwise stated). […] Injected oocytes were stored in ND96 storage solution supplemented with 50 μg/mL gentamycin and tetracycline at 18°C. Two-electrode voltage clamp recordings were performed on oocytes 2–4 days post-injection at room temperature (20–25°C) using a GeneClamp 500B amplifier (ADInstruments, Sydney, NSW, Australia) or a Warner OC-725C Oocyte Clamp (Warner Instrument Corp, Hamden, CT, USA). All experiments were conducted at a holding potential of –60 mV, and data were acquired with a PowerLab 2/25, and LabChart (version 5.0.2) software (ADInstruments, Sydney, NSW, Australia). The recording microelectrodes (0.2–1.1 MΩ) were generated from capillary glass (Harvard Apparatus, Holliston, MA, USA) using a single-stage glass microelectrode puller (Narishige, Tokyo, Japan), and were filled with 3 M KCl solution. The perfusion system was built using a series of polycarbonate, high-density polyethylene two-way stopcocks (Qosina, Edgewood, NY, USA), connected through tubing to the recording chamber (100 μL), where the oocyte was continuously perfused with ND96 recording solution (96 mM NaCl, 2 mM KCl, 1 mM MgCl2, 1.8 mM CaCl2, 5 mM HEPES hemisodium; pH 7.4) at an approximate rate of 5 mL/min.
(§3) Perfusates containing these chemicals were made up fresh before each application. The concentration-response curves of agonists were obtained by exposing oocytes to increasing concentrations of agonists until the currents peaked. […] All experiments were performed using at least two different batches of oocytes.
(§4) Prism (version 5.04; GraphPad Software, La Jolla, CA, USA) was used for data analysis.
(§5) In all cases, we constrained the bottom to 0, and when fitting data to the biphasic model, the Hill slopes were constrained to 1. Statistical comparisons of results for different injection ratios of β3γ2L receptors were performed using ANOVA with Tukey’s post-hoc test. When comparing results from different injection ratios of β3γ2L receptors with α2β3γ2L receptors, the ANOVA Dunnett’s test was used. Pairwise comparisons were performed using Student’s t test. Statistical significance was attained at p < 0.05.

α2β3 GABAARs = target: T2, α2β3 GABAARs (Homo sapiens, UniProt P28472+P47869); assay: Two-electrode voltage clamp of binary α2β3 GABAARs expressed in Xenopus oocytes; assay type: cell-based
T2 construct: expressed in transfected cells; host or cells: Xenopus laevis oocytes injected with capped mRNA, α2:β3 20:1
T2 sequence (P47869 29-451): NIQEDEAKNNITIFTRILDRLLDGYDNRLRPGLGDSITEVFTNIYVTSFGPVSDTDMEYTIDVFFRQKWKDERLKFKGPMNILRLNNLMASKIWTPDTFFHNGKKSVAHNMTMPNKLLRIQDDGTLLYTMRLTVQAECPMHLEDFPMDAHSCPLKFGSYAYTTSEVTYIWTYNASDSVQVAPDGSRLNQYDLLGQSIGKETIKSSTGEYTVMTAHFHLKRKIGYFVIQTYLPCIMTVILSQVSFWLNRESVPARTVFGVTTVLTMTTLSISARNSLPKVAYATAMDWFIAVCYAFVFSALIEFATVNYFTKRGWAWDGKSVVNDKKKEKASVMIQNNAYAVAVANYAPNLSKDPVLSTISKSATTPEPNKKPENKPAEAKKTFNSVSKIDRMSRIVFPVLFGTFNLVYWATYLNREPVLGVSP
T2 sequence (P28472 26-473): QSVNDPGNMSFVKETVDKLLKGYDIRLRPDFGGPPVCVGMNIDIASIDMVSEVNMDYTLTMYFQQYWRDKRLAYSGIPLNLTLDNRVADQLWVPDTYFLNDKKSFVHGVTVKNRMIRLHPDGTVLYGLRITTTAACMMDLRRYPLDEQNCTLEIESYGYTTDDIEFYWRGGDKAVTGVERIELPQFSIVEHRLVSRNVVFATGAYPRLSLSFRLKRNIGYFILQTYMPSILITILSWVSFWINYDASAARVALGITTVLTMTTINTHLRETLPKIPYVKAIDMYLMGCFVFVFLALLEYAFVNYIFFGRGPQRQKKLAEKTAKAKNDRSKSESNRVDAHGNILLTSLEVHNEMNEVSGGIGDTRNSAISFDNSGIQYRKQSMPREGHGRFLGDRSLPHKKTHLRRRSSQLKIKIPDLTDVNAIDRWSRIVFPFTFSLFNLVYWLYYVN
From the text: as §1, §2, §3, §4, §5

homomeric α2 GABAARs = target: T3, homomeric α2 GABAARs (Homo sapiens, UniProt P47869); assay: Two-electrode voltage clamp of oocytes injected with α2 mRNA alone; assay type: cell-based
T3 construct: expressed in transfected cells; host or cells: Xenopus laevis oocytes injected with α2 mRNA alone (28–35 ng/oocyte)
T3 sequence (P47869 29-451): T2 sequence (P47869 29-451)
From the text: as §1
Various combinations of α2, β3 and γ2L subunit mRNAs were mixed to different ratios as stated in the text, and diluted accordingly to a concentration of 5 ng/μL (unless otherwise stated). […] Injected oocytes were stored in ND96 storage solution supplemented with 50 μg/mL gentamycin and tetracycline at 18°C. […]

β3 homomeric receptors = target: T4, β3 homomeric receptors (Homo sapiens, UniProt P28472); assay: Two-electrode voltage clamp of β3 homomeric receptors expressed in Xenopus oocytes; assay type: cell-based
T4 construct: expressed in transfected cells; host or cells: Xenopus laevis oocytes injected with β3 mRNA (5 ng/oocyte)
T4 sequence (P28472 26-473): T2 sequence (P28472 26-473)
From the text: as §1, §2, §3
Prism (version 5.04; GraphPad Software, La Jolla, CA, USA) was used for data analysis. […]

γ2L homomeric receptors = target: T5, γ2L homomeric receptors (Homo sapiens, UniProt P18507); assay: Two-electrode voltage clamp of γ2L homomeric receptors expressed in Xenopus oocytes; assay type: cell-based; settings: γ2L alone
T5 construct: expressed in transfected cells; host or cells: Xenopus laevis oocytes injected with γ2L mRNA alone (high amounts)
From the text: as §1, §2, §3

α2γ2L receptors = target: T6, α2γ2L receptors (Homo sapiens, UniProt P18507+P47869); assay: Two-electrode voltage clamp of binary α2γ2L receptors expressed in Xenopus oocytes; assay type: cell-based
T6 construct: expressed in transfected cells; host or cells: Xenopus laevis oocytes injected with α2 and γ2L mRNAs
From the text: as §1, §2, §3

α2β3γ2L GABAARs [2] = target: T1, α2β3γ2L GABAARs; set-up: method as in PMID 21797842; settings: α2β3γ2L 1:1:10 injection ratio; cited from earlier work

T5 sequence (P18507 40-475): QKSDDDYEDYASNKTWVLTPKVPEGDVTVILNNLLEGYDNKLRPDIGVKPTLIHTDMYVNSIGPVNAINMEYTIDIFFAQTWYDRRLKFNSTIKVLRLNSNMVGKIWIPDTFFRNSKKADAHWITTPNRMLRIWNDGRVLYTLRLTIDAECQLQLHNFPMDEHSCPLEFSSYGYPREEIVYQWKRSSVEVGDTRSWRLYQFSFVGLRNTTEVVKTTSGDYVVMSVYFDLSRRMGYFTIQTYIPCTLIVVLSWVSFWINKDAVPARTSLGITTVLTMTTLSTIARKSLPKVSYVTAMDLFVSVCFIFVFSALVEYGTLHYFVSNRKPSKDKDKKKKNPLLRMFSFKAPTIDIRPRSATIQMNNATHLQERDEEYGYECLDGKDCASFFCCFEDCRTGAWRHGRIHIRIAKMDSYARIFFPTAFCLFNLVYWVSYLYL
T6 sequence (P18507 40-475, one chain of several): as the sequence (P18507 40-475) above
T1 sequence (P18507 40-475, one chain of several): as the sequence (P18507 40-475) above

For COc1ccccc1-c1cc(=O)c2cc(C)ccc2o1 [2’MeO6MF, 2’-methoxy-6-methylflavone], the EC50 (α2β3γ2L GABAARs [1]) was about 74 µM, the “2’MeO6MF activity” value (α2β3γ2L GABAARs [1]; α2β3γ2L 3:1:3) was “Activation” and the “Direct activation, % of the 3 mM GABA response” value (α2β3γ2L GABAARs [1]; α2β3γ2L 3:1:3, 300 μM ligand, mean ± SEM) was 8.2 ± 3.6%. For the same compound, the “Enhancement of GABA current (co-application)” value (α2β3γ2L GABAARs [1]; α2β3γ2L 3:1:3, GABA EC3–10 + 100 or 300 μM ligand, data not shown) was “No enhancement”, the “2’MeO6MF activity” value (α2β3 GABAARs; α2β3 20:1, 100 μM) was “lack of activity; also recorded: Insignificant activation” and the “Elicited current, % of the 3 mM GABA responses” value (α2β3 GABAARs; α2β3 20:1, 100 μM ligand) was 1.7 ± 0.35%. For the same compound, the “Enhancement of GABA current (co-application)” value (α2β3 GABAARs; α2β3 20:1, GABA EC3–10 + 100 or 300 μM ligand, data not shown) was “No enhancement”, the “2’MeO6MF activity” value (homomeric α2 GABAARs; 100 μM) was “did not detect function; also recorded: No current” and the “2’MeO6MF activity” value (β3 homomeric receptors; β3 alone, 3–300 μM) was “Inverse agonism”. For the same compound, the “Maximal inhibition of constitutive activity (normalised against oocyte holding current)” value (β3 homomeric receptors; β3 homomers, 300 μM ligand) was 54 ± 3.0%, the “2’MeO6MF activity” value (γ2L homomeric receptors; 100 μM) was “not sensitive; also recorded: not responsive; also recorded: No current” and the “2’MeO6MF activity” value (α2γ2L receptors; α2γ2L 1:1, 100 μM) was “no function; also recorded: No current”. The “Agonist efficacy (direct activation)” value (α2β3γ2L GABAARs [2]) was “full agonist”.
With NCCCC(=O)O [GABA, γ-aminobutyric acid] the “Expression level (current response elicited by GABA)” value (from here on “Expression level”) (α2β3γ2L GABAARs [1]; α2β3γ2L 3:1:3, 3 mM GABA) was 4300 ± 940 nA, the “Expression level” value (α2β3 GABAARs; α2β3 20:1, 5 ng mRNA, 3 mM GABA, -60 mV) was 1100 ± 220 nA and the “Expression level” value (homomeric α2 GABAARs; 28–35 ng mRNA/oocyte, 60 mM GABA, -60 mV) was “did not detect function; also recorded: No current”. The “Expression level” value (β3 homomeric receptors; β3 alone, 5 ng mRNA/oocyte, 60 mM GABA, -60 mV) was 290 ± 67 nA, the “Expression level” value (γ2L homomeric receptors; 20–35 ng mRNA/oocyte, 60 mM GABA, -60 mV) was “not sensitive; also recorded: not responsive; also recorded: No current” and the “Expression level” value (α2γ2L receptors; α2γ2L 1:1, 5 ng mRNA, 60 mM GABA, -60 mV) was “no function; also recorded: No current”.
